Results on nine molecules are retold here after EP3345917A1, “ANTIPROTOZOAL COMPOUNDS” (Bacoba AG, priority 2017, dated 2018).

Like-named read-outs stand apart in the source and are kept apart here. Non-standard residues stand in square brackets, D forms with d. Residues, ends and D or L forms follow the SMILES beside them. *: point of attachment. Hexenoyl(2E,4S-Me) = CC[C@H](C)/C=C/C(=O)*; Leu(3R-OH) = CC(C)[C@@H](O)[C@H](N)C(=O)O; NH((S)CH(Me)CH2NMe2) = C[C@@H](CN(C)C)N*; NH(1-CH2NMe2-cBu) = CN(C)CC1(N*)CCC1; Gly(octyl) = CCCCCCCC[C@H](N)C(=O)O; Oxazole4CO(2-Me) = Cc1nc(C(=O)*)co1; X4 = O=C(C1CCc2ccccc2C1)*; Nle = CCCC[C@H](N)C(=O)O; Hexanoyl = CCCCCC(=O)*; Aib = CC(C)(N)C(=O)O; βAla = NCCC(=O)O; NHcPr = C1CC1N*

The subject of data set [1] is intracellular Leishmania donovani (L.don. InMac). The experiment in a line: Intracellular Leishmania donovani assay (L.don. InMac). It is filed as cell-based. As to conditions: In vitro inhibition. The source says:
(§1) Tests were done in triplicate.

Data set [2] concerns Trypanosoma cruzi trypomastigote forms (Tulahuen strain). The experiment in a line: Intracellular Trypanosoma cruzi assay in L6-cells, beta-galactosidase/CPRG readout. The data set is classed as cell-based. As to conditions: In vitro inhibition, read-out: T.cruzi. A digest of the protocol:
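Readout was β-galactosidase cleavage of CPRG, read photometrically at 540 nm after 2–6 h colour development, giving IC50 values. Parasites: LacZ-expressing Tulahuen C2C4 strain grown in rat L6 myoblasts; run in triplicate.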

Data set [3] concerns Trypanosoma brucei rhodesiense (STIB 900 strain). The experiment in a line: Alamar Blue assay against Trypanosoma brucei rhodesiense grown in axenic medium. The data set is classed as cell-based. To be noted: In vitro inhibition, read-out: T.b.rhod. Put shortly:
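Alamar Blue-based IC50 determination, in triplicate, on axenically grown STIB 900 trypanosomes. Melarsoprol included as reference.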
A general note: Resazurin is reduced to fluorescent resorufin, in cell work by metabolically active cells.

For data set [4], the system named is Axenically grown Leishmania donovani amastigotes (strain MHOM/ET/67/L82). Briefly: Axenic Leishmania donovani amastigote resazurin assay. It is filed as cell-based. As to conditions: In vitro inhibition, read-out: L.don. ax. Put shortly: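 IC50 values derive from resazurin fluorescence (ex 536 nm, em 588 nm), expressed relative to the negative control, after 2-4 hours of plate development. Axenic amastigotes of strain MHOM/ET/67/L82 were used; each test run in triplicate.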

The subject of a further data set is Plasmodium falciparum. The experiment in a line: 3H-hypoxanthine incorporation assay against Plasmodium falciparum. The data set is classed as cell-based. To be noted: In vitro inhibition, read-out: P.falc NF5. The protocol:
as §1
IC50 values were calculated by linear interpolation.

Data set [5] is described as follows: Cytotoxicity assay on L6-cells (Alamar Blue). To be noted: rat, Cytotox L6, Cytotoxicity against rat myoblast cells (L6).

As for `CCCCCCCC[C@H](NC(=O)[C@@H]1CCCN1C(=O)C1CCc2ccccc2C1)C(=O)N[C@@H](CC(C)C)C(=O)NC(C)(C)C(=O)N[C@@H](CC(C)C)C(=O)N[C@@H](CC(C)C)C(=O)NC(C)(C)C(=O)NC(C)(C)C(=O)NCCC(=O)N[C@@H](C)CN(C)C` (stereo partly drawn) [Compound 5910, (2S)-N-[(1S)-1-[(1-{[(1S)-1-{[(1S)-1-{[1-({1-[(2-{[(2S)-1-(dimethylamino)propan-2-yl]carbamoyl}ethyl)carbamoyl]-1-methylethyl}carbamoyl)-1-methylethyl]carbamoyl}-3-methylbutyl]carbamoyl}-3-methylbutyl]carbamoyl}-1-methylethyl)carbamoyl]-3-methylbutyl]-2-{[(2S)-1-(1,2,3,4-tetrahydronaphthalene-2-carbonyl)pyrrolidin-2-yl]formamido}decanamide] (X4-P[Gly(octyl)]L[Aib]LL[Aib][Aib][βAla]-{NH((S)CH(Me)CH2NMe2)}), the IC50 in data set [1] was found to be 42.6 µM; in data set [2] it was 0.0411 µM; in data set [3], 24.8 µM; in data set [4] it was 42.6 µM; in the data set with Plasmodium falciparum, 42.6 µM.

On to `CCCCCCCCCCCCCCCCOP(=O)([O-])OCC[N+](C)(C)C` [Miltefosine], for which the IC50 in data set [1] was 1.2 µM; in data set [4] (axenic Leishmania donovani) it was 0.118 µM.

Turning to `CCCCCCCC[C@H](NC(=O)[C@@H]1CCCN1C(=O)CCCCC)C(=O)N[C@H](C(=O)N[C@@H](CC(C)C)C(=O)N[C@@H](CC(C)C)C(=O)NC(C)(C)C(=O)NC(C)(C)C(=O)NCCC(=O)N[C@@H](C)CN(C)C)[C@@H](C)O` [Compound 5598, (2S)-N-[(1S,2R)-1-{[(1S)-1-{[(1S)-1-{[1-({1-[(2-{[(2S)-1-(dimethylamino)propan-2-yl]carbamoyl}ethyl)carbamoyl]-1-methylethyl}carbamoyl)-1-methylethyl]carbamoyl}-3-methylbutyl]carbamoyl}-3-methylbutyl]carbamoyl}-2-hydroxypropyl]-2-{[(2S)-1-hexanoylpyrrolidin-2-yl]formamido}decanamide] (Hexanoyl-P[Gly(octyl)]TLL[Aib][Aib][βAla]-{NH((S)CH(Me)CH2NMe2)}), the IC50 at 70 h in data set [5] came to 3.78 µM. Besides, the IC50 amounted to 6.59 µM in data set [2], 1.24 µM in data set [3], 0.556 µM in data set [4] and 2.13 µM in the data set on Plasmodium falciparum.

`CCCCCCCC[C@H](NC(=O)[C@H](C)NC(=O)/C=C/[C@@H](C)CC)C(=O)N[C@H](C(=O)NC(C)(C)C(=O)N[C@@H](CC(C)C)C(=O)N[C@@H](CC(C)C)C(=O)NC(C)(C)C(=O)NC(C)(C)C(=O)NCCC(=O)N[C@@H](C)CN(C)C)[C@H](O)C(C)C` [Compound 5527, (2S)-N-[(1S,2R)-1-[(1-{[(1S)-1-{[(1S)-1-{[1-({1-[(2-{[(2S)-1-(dimethylamino)propan-2-yl]carbamoyl}ethyl)carbamoyl]-1-methylethyl}carbamoyl)-1-methylethyl]carbamoyl}-3-methylbutyl]carbamoyl}-3-methylbutyl]carbamoyl}-1-methylethyl)carbamoyl]-2-hydroxy-3-methylbutyl]-2-[(2S)-2-[(2E,4S)-4-methylhex-2-enamido]propanamido]decanamide] ({Hexenoyl(2E,4S-Me)}-A[Gly(octyl)][Leu(3R-OH)][Aib]LL[Aib][Aib][βAla]-{NH((S)CH(Me)CH2NMe2)}) returned an IC50 at 70 h in data set [5] of 0.274 µM. Moreover, the IC50 stood at 0.0679 µM in data set [2], 0.0018 µM in data set [3], 0.0011 µM in data set [4] and 0.0084 µM in the data set on Plasmodium falciparum.

In data set [5], `CCCCCCCC[C@H](NC(=O)[C@@H]1CCCN1C(=O)c1coc(C)n1)C(=O)N[C@@H](CC(C)C)C(=O)NC(C)(C)C(=O)NC(C)(C)C(=O)N[C@@H](CC(C)C)C(=O)N[C@@H](CC(C)C)C(=O)NC(C)(C)C(=O)NC(C)(C)C(=O)NCCC(=O)NC1(CN(C)C)CCC1` [Compound 6330, (2S)-N-[(1S)-1-({1-[(1-{[(1S)-1-{[(1S)-1-({1-[(1-{[2-({1-[(dimethylamino)methyl]cyclobutyl}carbamoyl)ethyl]carbamoyl}-1-methylethyl)carbamoyl]-1-methylethyl}carbamoyl)-3-methylbutyl]carbamoyl}-3-methylbutyl]carbamoyl}-1-methylethyl)carbamoyl]-1-methylethyl}carbamoyl)-3-methylbutyl]-2-{[(2S)-1-(2-methyl-1,3-oxazole-4-carbonyl)pyrrolidin-2-yl]formamido}decanamide] ({Oxazole4CO(2-Me)}-P[Gly(octyl)]L[Aib][Aib]LL[Aib][Aib][βAla]-{NH(1-CH2NMe2-cBu)}) came in with an IC50 at 70 h of 1.2 µM. Besides, the IC50 in data set [2] is 0.0363 µM; in data set [3] it was 0.0002 µM; in data set [4], 0.00072 µM; in the data set with Plasmodium falciparum, 0.00024 µM.

For the molecule `CCCCCCCC[C@H](NC(=O)[C@@H]1CCCN1C(=O)CCCCC)C(=O)N[C@@H](CC(C)C)C(=O)NC(C)(C)C(=O)N[C@@H](CC(C)C)C(=O)N[C@@H](CC(C)C)C(=O)NC(C)(C)C(=O)NC(C)(C)C(=O)NCCC(=O)NC1CC1` [Compound 5645, (2S)-N-[(1S)-1-[(1-{[(1S)-1-{[(1S)-1-({1-[(1-{[2-(cyclopropylcarbamoyl)ethyl]carbamoyl}-1-methylethyl)carbamoyl]-1-methylethyl}carbamoyl)-3-methylbutyl]carbamoyl}-3-methylbutyl]carbamoyl}-1-methylethyl)carbamoyl]-3-methylbutyl]-2-{[(2S)-1-hexanoylpyrrolidin-2-yl]formamido}decanamide] (Hexanoyl-P[Gly(octyl)]L[Aib]LL[Aib][Aib][βAla]-NHcPr), the IC50 at 70 h in data set [5] came out at 1.23 µM. Further, the IC50 in data set [2] was found to be 4.24 µM; in data set [3] it was 0.537 µM; in data set [4] it was 0.168 µM; in the data set with Plasmodium falciparum, 0.0138 µM.

As for `CC[C@H](C)/C=C/C(=O)N1CCC[C@H]1C(=O)N[C@@H](C)C(=O)N[C@H](C(=O)NC(C)(C)C(=O)N[C@@H](CC(C)C)C(=O)N[C@@H](CC(C)C)C(=O)NC(C)(C)C(=O)NC(C)(C)C(=O)NCCC(=O)N[C@@H](C)CN(C)C)[C@H](O)C(C)C` [Compound 5526, (2S,3R)-N-(1-{[(1S)-1-{[(1S)-1-{[1-({1-[(2-{[(2S)-1-(dimethylamino)propan-2-yl]carbamoyl}ethyl)carbamoyl]-1-methylethyl}carbamoyl)-1-methylethyl]carbamoyl}-3-methylbutyl]carbamoyl}-3-methylbutyl]carbamoyl}-1-methylethyl)-3-hydroxy-4-methyl-2-[(2S)-2-{[(2S)-1-[(2E,4S)-4-methylhex-2-enoyl]pyrrolidin-2-yl]formamido}propanamido]pentanamide] ({Hexenoyl(2E,4S-Me)}-PA[Leu(3R-OH)][Aib]LL[Aib][Aib][βAla]-{NH((S)CH(Me)CH2NMe2)}), the IC50 at 70 h in data set [5] came out at 3.64 µM. The IC50 in data set [2] came out at 4.5 µM; in data set [3], 0.00235 µM; in data set [4], 0.286 µM; in the data set on Plasmodium falciparum, 0.0838 µM.

In data set [5], `CCCCCCCC[C@H](NC(=O)[C@@H]1CCCN1C(=O)CCCCC)C(=O)N[C@H](C(=O)N[C@@H](CC(C)C)C(=O)N[C@@H](CC(C)C)C(=O)NC(C)(C)C(=O)NCCC(=O)N[C@@H](C)CN(C)C)[C@@H](C)O` [Compound 5599, (2S)-N-[(1S,2R)-1-{[(1S)-1-{[(1S)-1-({1-[(2-{[(2S)-1-(dimethylamino)propan-2-yl]carbamoyl}ethyl)carbamoyl]-1-methylethyl}carbamoyl)-3-methylbutyl]carbamoyl}-3-methylbutyl]carbamoyl}-2-hydroxypropyl]-2-{[(2S)-1-hexanoylpyrrolidin-2-yl]formamido}decanamide] (Hexanoyl-P[Gly(octyl)]TLL[Aib][βAla]-{NH((S)CH(Me)CH2NMe2)}) registered an IC50 at 70 h of 6.95 µM. For the same molecule, the IC50 in data set [2] came out at 8.36 µM; in data set [3], 1.94 µM; in data set [4], 4.81 µM; in the data set with Plasmodium falciparum it was 3.5 µM.

Molecule `CCCC[C@H](NC(=O)[C@@H]1CCCN1C(=O)/C=C/[C@@H](C)CC)C(=O)N[C@H](C(=O)NC(C)(C)C(=O)N[C@@H](CC(C)C)C(=O)N[C@@H](CC(C)C)C(=O)NC(C)(C)C(=O)NC(C)(C)C(=O)NCCC(=O)N[C@@H](C)CN(C)C)[C@H](O)C(C)C` [Compound 5561, (2S)-N-[(1S,2R)-1-[(1-{[(1S)-1-{[(1S)-1-{[1-({1-[(2-{[(2S)-1-(dimethylamino)propan-2-yl]carbamoyl}ethyl)carbamoyl]-1-methylethyl}carbamoyl)-1-methylethyl]carbamoyl}-3-methylbutyl]carbamoyl}-3-methylbutyl]carbamoyl}-1-methylethyl)carbamoyl]-2-hydroxy-3-methylbutyl]-2-{[(2S)-1-[(2E,4S)-4-methylhex-2-enoyl]pyrrolidin-2-yl]formamido}hexanamide] ({Hexenoyl(2E,4S-Me)}-P[Nle][Leu(3R-OH)][Aib]LL[Aib][Aib][βAla]-{NH((S)CH(Me)CH2NMe2)}) came in with an IC50 at 70 h in data set [5] of 0.356 µM. The IC50 stood at 0.162 µM in data set [2], 0.0007 µM in data set [3], 0.0041 µM in data set [4] and 0.0045 µM with Plasmodium falciparum.
